{
  "source": "patent US6355799B1",
  "about": "“Substituted benzene compounds, process for their preparation, and herbicidal and defoliant compositions containing them” (ISK Americas Incorporated, priority 1997, dated 2002)",
  "format_in_all_cases": "in vivo",
  "key": {"[1]": {"system": "green foxtail (Setaria viridis, SETVI)", "experiment": "Pre-emerge test, greenhouse herbicide activity screening", "settings": "rating scale 0-100, 14 days after application", "from_the_text": "(§1) A standard greenhouse herbicide activity screening system was used to evaluate the herbicidal efficacy and crop safety of these test compounds. Seven broadleaf weed species including redroot pigweed (Amaranthus retroflexus, AMARE, velvetleaf (Abutilon theophrasti, ABUTH), sicklepod (Cassia obtusifolia, CASOB), ivyleaf morningglory (Ipomoea hederacea, IPOHE), lambsquarters (Chenopodium album, CHEAL), common ragweed (Ambrosia artemisizfolia L., AMBEL), and cocklebur (Xanthium strumarium, XANST) were used as test species. Four grass weed species including green foxtail (Setaria viridis, SETVI), barnyardgrass (Echinochloa crus-galli, ECHCG), johnsongrass (Sorghum halepense, SORHA), and large crabgrass (Digitaria sanguinalis, DIGSA) were also used. In addition, three crop species, field corn (Zea mays L., var. Dekalb 535, CORN), soybean (Glycine max L., var. Pella 86, SOY), and is upland rice (Oryza sp., var. Tebonnet, RICE) were included.\n(§2) All plants were grown in 10 cm square plastic pots which were filled with a sandy loam soil mix. For pre-emerge tests, seeds were planted one day prior to application of the test compounds. For post-emerge tests, seeds were planted 8-21 days prior to the test to allow emergence and good foliage development prior to application of the test substances. At the time of the post-emerge application, plants of all species were usually at the 2-3 leaf stage of development.\n(§3) All test compounds Were dissolved in acetone and applied to the test units in a volume of 187 l /ha. Test materials were applied at rates ranging from 15 g ai/ha to 1000 g ai/ha using a track sprayer equipped with a TJ8001E even flow flat fan spray nozzle. Plants were arranged on a shelf so that the top of the canopy (post-emerge) or top of the soil surface (pre-emerge) was 40-45 cm below the nozzle. Pressurized air was used to force the test solution through the nozzle as it was mechanically advanced (via electrically driven chain drive) over the top of all test plants/pots. This application simulates a typical commercial field herbicide application.\n(§4) In the post-emerge test, a commercial non-ionic surfactant was also included (0.25% v/v) to enhance wetting of the leaf surfaces of target plants. Immediately after application, test units of the pre-emerge applications were watered at the soil surface to incorporate the test materials. Subsequently, these test units were bottom-watered. Post-emerge test units were always bottom-watered.\n(§5) At 14 days after application of the test materials, phytotoxicity ratings were recorded. A rating scale of 0-100 was used as previously described in Research Methods in Weed Science, 2nd edition, B. Truelove, Ed., Southern Weed Science Society, Auburn University, Auburn, Ala. 1977. Briefly, “0” corresponds to no damage and “100” corresponds to complete death of all plants in the test unit. This scale was used both to determine efficacy against weed species and damage to crop species. Herbicide activity data for various compounds of this invention, which are shown by compound No. in Tables 1-8, are shown in Tables 11 and 12."}, "[2]": {"system": "lambsquarters (Chenopodium album, CHEAL)", "experiment": "Pre-emerge test, greenhouse herbicide activity screening", "settings": "rating scale 0-100, 14 days after application", "from_the_text": "as §1, §2, §3, §4, §5"}, "[3]": {"system": "velvetleaf (Abutilon theophrasti, ABUTH)", "experiment": "Pre-emerge test, greenhouse herbicide activity screening", "settings": "rating scale 0-100, 14 days after application", "from_the_text": "as §1, §2, §3, §4, §5"}, "[4]": {"system": "sicklepod (Cassia obtusifolia, CASOB)", "experiment": "Pre-emerge test, greenhouse herbicide activity screening", "settings": "rating scale 0-100, 14 days after application", "from_the_text": "as §1, §2, §3, §4, §5"}, "[5]": {"system": "ivyleaf morningglory (Ipomoea hederacea, IPOHE)", "experiment": "Pre-emerge test, greenhouse herbicide activity screening", "settings": "rating scale 0-100, 14 days after application", "from_the_text": "as §1, §2, §3, §4, §5"}, "[6]": {"system": "large crabgrass (Digitaria sanguinalis, DIGSA)", "experiment": "Pre-emerge test, greenhouse herbicide activity screening", "settings": "rating scale 0-100, 14 days after application", "from_the_text": "as §1, §2, §3, §4, §5"}, "[7]": {"system": "barnyardgrass (Echinochloa crus-galli, ECHCG)", "experiment": "Pre-emerge test, greenhouse herbicide activity screening", "settings": "rating scale 0-100, 14 days after application", "from_the_text": "as §1, §2, §3, §4, §5"}, "[8]": {"system": "field corn (Zea mays L., var. Dekalb 535, CORN)", "experiment": "Post-emerge test, crop safety", "settings": "post-emerge, crop damage rating 0-100 at 14 days after application", "summary_of_the_method": "(§6)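 Visual ratings on a 0-100 scale (0 no damage, 100 all plants dead) were taken at 14 days after treatment. Rates of 15-1000 g ai/ha in acetone, 187 l/ha, were sprayed onto soil one day after planting (pre-emerge) or onto 2-3 leaf plants with 0.25% v/v surfactant (post-emerge).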"}, "[9]": {"system": "upland rice (Oryza sp., var. Tebonnet, RICE)", "experiment": "Post-emerge test, crop safety", "settings": "post-emerge, crop damage rating 0-100 at 14 days after application", "summary_of_the_method": "as §6"}, "[10]": {"system": "green foxtail (Setaria viridis, SETVI)", "experiment": "Post-emerge test, greenhouse herbicide activity screening", "settings": "post-emerge, phytotoxicity rating 0-100 at 14 days after application", "from_the_text": "as §1, §2, §3, §4, §5"}, "[11]": {"system": "lambsquarters (Chenopodium album, CHEAL)", "experiment": "Post-emerge test, greenhouse herbicide activity screening", "settings": "post-emerge, phytotoxicity rating 0-100 at 14 days after application", "from_the_text": "as §1, §2, §3, §4, §5"}, "[12]": {"system": "velvetleaf (Abutilon theophrasti, ABUTH)", "experiment": "Post-emerge test, greenhouse herbicide activity screening", "settings": "post-emerge, phytotoxicity rating 0-100 at 14 days after application", "from_the_text": "as §1, §2, §3, §4, §5"}, "[13]": {"system": "redroot pigweed (Amaranthus retroflexus, AMARE)", "experiment": "Post-emerge test, greenhouse herbicide activity screening", "settings": "post-emerge, phytotoxicity rating 0-100 at 14 days after application", "from_the_text": "as §1, §2, §3, §4, §5"}, "[14]": {"system": "sicklepod (Cassia obtusifolia, CASOB)", "experiment": "Post-emerge test, greenhouse herbicide activity screening", "settings": "post-emerge, phytotoxicity rating 0-100 at 14 days after application", "from_the_text": "as §1, §2, §3, §4, §5"}, "[15]": {"system": "ivyleaf morningglory (Ipomoea hederacea, IPOHE)", "experiment": "Post-emerge test, greenhouse herbicide activity screening", "settings": "post-emerge, phytotoxicity rating 0-100 at 14 days after application", "from_the_text": "as §1, §2, §3, §4, §5"}, "[16]": {"system": "large crabgrass (Digitaria sanguinalis, DIGSA)", "experiment": "Post-emerge test, greenhouse herbicide activity screening", "settings": "post-emerge, phytotoxicity rating 0-100 at 14 days after application", "from_the_text": "as §1, §2, §3, §4, §5"}, "[17]": {"system": "barnyardgrass (Echinochloa crus-galli, ECHCG)", "experiment": "Post-emerge test, greenhouse herbicide activity screening", "settings": "post-emerge, phytotoxicity rating 0-100 at 14 days after application", "from_the_text": "as §1, §2, §3, §4, §5"}, "[18]": {"system": "redroot pigweed (Amaranthus retroflexus, AMARE)", "experiment": "Pre-emerge test, greenhouse herbicide activity screening", "settings": "rating scale 0-100, 14 days after application", "summary_of_the_method": "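Rating: 0–100 visual injury, 14 DAA. Application: acetone, 187 l/ha, 15–1000 g ai/ha, flat-fan track sprayer with nozzle 40–45 cm above soil or canopy. Post-emerge runs used 0.25% v/v surfactant on 2–3 leaf plants.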"}, "[19]": {"system": "field corn (Zea mays L., var. Dekalb 535, CORN)", "experiment": "Pre-emerge test, crop safety", "settings": "rating scale 0-100, 14 days after application", "summary_of_the_method": "(§7)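 Applied at 15–1000 g ai/ha from acetone in 187 l/ha spray volume. Post-emergence applications included 0.25% v/v non-ionic surfactant and reached plants sown 8–21 days before. Pre-emergence applications were incorporated by surface watering. Efficacy or crop damage was rated on a 0–100 scale after 14 days.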"}, "[20]": {"system": "upland rice (Oryza sp., var. Tebonnet, RICE)", "experiment": "Pre-emerge test, crop safety", "settings": "rating scale 0-100, 14 days after application", "summary_of_the_method": "as §7"}},
  "data": [
    {"smiles": "COc1c(Cl)cc(F)c(N2C(=O)C3CCCCN3C2=S)c1NC(=O)c1ccc2ccccc2c1", "note": "(stereo not shown) [12-5]", "values": [
      {"measurement": "Pre-emerge herbicidal activity, phytotoxicity rating SETVI", "setting": "[1]; 63 g ai/ha", "result": 0},
      {"measurement": "Pre-emerge herbicidal activity, phytotoxicity rating SETVI", "setting": "[1]; 250 g ai/ha", "result": 0},
      {"measurement": "Pre-emerge herbicidal activity, phytotoxicity rating CHEAL", "setting": "[2]; 63 g ai/ha", "result": 90},
      {"measurement": "Pre-emerge herbicidal activity, phytotoxicity rating CHEAL", "setting": "[2]; 250 g ai/ha", "result": 100},
      {"measurement": "Pre-emerge herbicidal activity, phytotoxicity rating ABUTH", "setting": "[3]; 63 g ai/ha", "result": 70},
      {"measurement": "Pre-emerge herbicidal activity, phytotoxicity rating ABUTH", "setting": "[3]; 250 g ai/ha", "result": 90},
      {"measurement": "Pre-emerge herbicidal activity, phytotoxicity rating CASOB", "setting": "[4]; 63 g ai/ha", "result": 0},
      {"measurement": "Pre-emerge herbicidal activity, phytotoxicity rating CASOB", "setting": "[4]; 250 g ai/ha", "result": 80},
      {"measurement": "Pre-emerge herbicidal activity, phytotoxicity rating IPOHE", "setting": "[5]; 63 g ai/ha", "result": 0},
      {"measurement": "Pre-emerge herbicidal activity, phytotoxicity rating IPOHE", "setting": "[5]; 250 g ai/ha", "result": 20},
      {"measurement": "Pre-emerge herbicidal activity, phytotoxicity rating DIGSA", "setting": "[6]; 63 g ai/ha", "result": 0},
      {"measurement": "Pre-emerge herbicidal activity, phytotoxicity rating DIGSA", "setting": "[6]; 250 g ai/ha", "result": 10},
      {"measurement": "Pre-emerge herbicidal activity, phytotoxicity rating ECHCG", "setting": "[7]; 63 g ai/ha", "result": 0},
      {"measurement": "Pre-emerge herbicidal activity, phytotoxicity rating ECHCG", "setting": "[7]; 250 g ai/ha", "result": 40},
      {"measurement": "Post-emerge Herbicidal Activity CORN", "setting": "[8]; 63 g ai/ha", "result": 25},
      {"measurement": "Post-emerge Herbicidal Activity CORN", "setting": "[8]; 250 g ai/ha", "result": 20},
      {"measurement": "Post-emerge Herbicidal Activity RICE", "setting": "[9]; 63 g ai/ha", "result": 20},
      {"measurement": "Post-emerge Herbicidal Activity RICE", "setting": "[9]; 250 g ai/ha", "result": 15},
      {"measurement": "Post-emerge Herbicidal Activity SETVI", "setting": "[10]; 63 g ai/ha", "result": 20},
      {"measurement": "Post-emerge Herbicidal Activity SETVI", "setting": "[10]; 250 g ai/ha", "result": 10},
      {"measurement": "Post-emerge Herbicidal Activity CHEAL", "setting": "[11]; 63 g ai/ha", "result": 100},
      {"measurement": "Post-emerge Herbicidal Activity CHEAL", "setting": "[11]; 250 g ai/ha", "result": 99},
      {"measurement": "Post-emerge Herbicidal Activity ABUTH", "setting": "[12]; 63 g ai/ha", "result": 100},
      {"measurement": "Post-emerge Herbicidal Activity ABUTH", "setting": "[12]; 250 g ai/ha", "result": 100},
      {"measurement": "Post-emerge Herbicidal Activity AMARE", "setting": "[13]; 63 g ai/ha", "result": 70},
      {"measurement": "Post-emerge Herbicidal Activity AMARE", "setting": "[13]; 250 g ai/ha", "result": 85},
      {"measurement": "Post-emerge Herbicidal Activity CASOB", "setting": "[14]; 63 g ai/ha", "result": 40},
      {"measurement": "Post-emerge Herbicidal Activity CASOB", "setting": "[14]; 250 g ai/ha", "result": 60},
      {"measurement": "Post-emerge Herbicidal Activity IPOHE", "setting": "[15]; 63 g ai/ha", "result": 100},
      {"measurement": "Post-emerge Herbicidal Activity IPOHE", "setting": "[15]; 250 g ai/ha", "result": 99},
      {"measurement": "Post-emerge Herbicidal Activity DIGSA", "setting": "[16]; 63 g ai/ha", "result": 0},
      {"measurement": "Post-emerge Herbicidal Activity DIGSA", "setting": "[16]; 250 g ai/ha", "result": 10},
      {"measurement": "Post-emerge Herbicidal Activity ECHCG", "setting": "[17]; 63 g ai/ha", "result": 10},
      {"measurement": "Post-emerge Herbicidal Activity ECHCG", "setting": "[17]; 250 g ai/ha", "result": 10},
      {"measurement": "Pre-emerge herbicidal activity, phytotoxicity rating AMARE", "setting": "[18]; 63 g ai/ha", "result": 30},
      {"measurement": "Pre-emerge herbicidal activity, phytotoxicity rating AMARE", "setting": "[18]; 250 g ai/ha", "result": 100},
      {"measurement": "Pre-emerge phytotoxicity rating, crop damage CORN", "setting": "[19]; 63 g ai/ha", "result": 0},
      {"measurement": "Pre-emerge phytotoxicity rating, crop damage CORN", "setting": "[19]; 250 g ai/ha", "result": 0},
      {"measurement": "Pre-emerge phytotoxicity rating, crop damage RICE", "setting": "[20]; 63 g ai/ha", "result": 0},
      {"measurement": "Pre-emerge phytotoxicity rating, crop damage RICE", "setting": "[20]; 250 g ai/ha", "result": 10}
    ]}
  ]
}
